# Measured values as given in ChEMBL document CHEMBL3885861, “Open TG-GATES”.
# Species on record: Rattus norvegicus
# Assay: Open TG-GATES - Regimen: Daily Repeat
# Type: toxicity, organism-based, Sprague-Dawley
# Parameters: regimen Daily Repeat, gender Male, age 6 weeks
# Conditions: in vivo, po, route gavage; for APTT / Bas / Eos / Hb / Ht / Lym / MCH / MCHC / MCV / Mono / PT / Plat / RBC / Ret / WBC / Neu: tissue Blood; for KIDNEY_L / KIDNEY_R / KIDNEY_TOTAL: tissue Kidney; for LIVER: tissue Liver; for ALT / AST / BUN / CRE / Ca / DBIL / GLC / IP / K / LDH / Na / PL / RALB / TBIL / TC / TP / gamma-GTP / TG / ALP: tissue Plasma
# [1] = 0 mg/kg, 72 h, dose level Control, time 3 day
# [2] = 0 mg/kg, […], dose level Control, time 7 day
# [3] = 0 mg/kg, […], dose level Control, time 14 day
# [4] = 0 mg/kg, […], dose level Control, time 28 day
# [5] = 100 mg/kg, 72 h, dose level Low, time 3 day
# [6] = 100 mg/kg, […], dose level Low, time 7 day
# [7] = 100 mg/kg, […], dose level Low, time 14 day
# [8] = 100 mg/kg, […], dose level Low, time 28 day
# [9] = 300 mg/kg, 72 h, dose level Middle, time 3 day
compound,measurement,setting,value
C[C@H](CS)C(=O)N1CCC[C@H]1C(=O)O [CAPTOPRIL],TERMINAL_BW,[1],245.5 g
same,APTT,[1],16.1 s
same,Bas,[1],0%
same,Eos,[1],1.2%
same,Hb,[1],13.4 g/dL
same,Ht,[1],41%
same,Lym,[1],82.8%
same,MCH,[1],21.5 pg
same,MCHC,[1],32.7%
same,MCV,[1],65.6 fL
same,Mono,[1],5.8%
same,PT,[1],11.3 s
same,Plat,[1],117.3 x10_4/uL
same,RBC,[1],625 x10_4/ul
same,Ret,[1],7.6%
same,WBC,[1],119.1 x10_2/uL
same,KIDNEY_L,[1],1.1 g
same,KIDNEY_R,[1],1.1 g
same,KIDNEY_TOTAL,[1],2.2 g
same,LIVER,[1],11.9 g
same,ALT,[1],40.4 IU/L
same,AST,[1],64.8 IU/L
same,BUN,[1],17.6 mg/dL
same,CRE,[1],0.5 mg/dL
same,Ca,[1],11.3 mg/dL
same,DBIL,[1],0.016 mg/dL
same,GLC,[1],197.6 mg/dL
same,IP,[1],8.9 mg/dL
same,K,[1],4.8 meq/L
same,LDH,[1],86.2 IU/L
same,Na,[1],139 meq/L
same,PL,[1],142.4 mg/dL
same,RALB,[1],3.8 g/dL
same,TBIL,[1],0.4 mg/dL
same,TC,[1],70.6 mg/dL
same,TP,[1],5.7 g/dL
same,gamma-GTP,[1],1.2 IU/L
same,TERMINAL_BW,[2],274 g
same,TERMINAL_BW,[3],333.4 g
same,TERMINAL_BW,[4],402.1 g
same,APTT,[2],16.6 s
same,Bas,[2],0%
same,Eos,[2],0.8%
same,Hb,[2],13.8 g/dL
same,Ht,[2],41.7%
same,Lym,[2],83%
same,MCH,[2],21.1 pg
same,MCHC,[2],33.1%
same,MCV,[2],63.9 fL
same,Mono,[2],4%
same,Neu,[2],12.4%
same,Plat,[2],113.7 x10_4/uL
same,RBC,[2],653.4 x10_4/ul
same,Ret,[2],6.1%
same,WBC,[2],144.9 x10_2/uL
same,APTT,[3],16.9 s
same,Bas,[3],0%
same,Eos,[3],1%
same,Hb,[3],14.3 g/dL
same,Ht,[3],43.1%
same,Lym,[3],80.8%
same,MCH,[3],20.5 pg
same,MCHC,[3],33.1%
same,MCV,[3],62.1 fL
same,Mono,[3],6%
same,Neu,[3],12.4%
same,PT,[3],11.4 s
same,Plat,[3],112.4 x10_4/uL
same,RBC,[3],694.8 x10_4/ul
same,Ret,[3],4.1%
same,WBC,[3],122.3 x10_2/uL
same,APTT,[4],16.7 s
same,Bas,[4],0%
same,Eos,[4],1%
same,Hb,[4],14.5 g/dL
same,Ht,[4],43.7%
same,Lym,[4],86.8%
same,MCH,[4],19 pg
same,MCHC,[4],33.1%
same,MCV,[4],57.4 fL
same,Mono,[4],4.4%
same,Neu,[4],7.8%
same,PT,[4],11.9 s
same,RBC,[4],761.8 x10_4/ul
same,Ret,[4],2.5%
same,WBC,[4],154.2 x10_2/uL
same,KIDNEY_L,[2],1.1 g
same,KIDNEY_R,[2],1.1 g
same,KIDNEY_TOTAL,[2],2.3 g
same,KIDNEY_L,[3],1.3 g
same,KIDNEY_R,[3],1.3 g
same,KIDNEY_TOTAL,[3],2.6 g
same,KIDNEY_L,[4],1.4 g
same,KIDNEY_R,[4],1.4 g
same,KIDNEY_TOTAL,[4],2.9 g
same,LIVER,[2],13 g
same,LIVER,[3],15.7 g
same,LIVER,[4],17 g
same,ALT,[2],37.8 IU/L
same,AST,[2],62 IU/L
same,BUN,[2],18.8 mg/dL
same,CRE,[2],0.6 mg/dL
same,DBIL,[2],0.002 mg/dL
same,GLC,[2],198 mg/dL
same,IP,[2],8.1 mg/dL
same,K,[2],4.9 meq/L
same,LDH,[2],72.4 IU/L
same,Na,[2],141.4 meq/L
same,PL,[2],132.2 mg/dL
same,RALB,[2],3.8 g/dL
same,TBIL,[2],0.3 mg/dL
same,TC,[2],65.2 mg/dL
same,TG,[2],79.8 mg/dL
same,TP,[2],5.8 g/dL
same,gamma-GTP,[2],1.2 IU/L
same,ALP,[3],916.4 IU/L
same,ALT,[3],32.6 IU/L
same,AST,[3],60.2 IU/L
same,BUN,[3],17.8 mg/dL
same,CRE,[3],0.5 mg/dL
same,DBIL,[3],0 mg/dL
same,GLC,[3],202.6 mg/dL
same,IP,[3],8.1 mg/dL
same,K,[3],4.5 meq/L
same,LDH,[3],76.8 IU/L
same,Na,[3],139.4 meq/L
same,PL,[3],169.6 mg/dL
same,RALB,[3],3.9 g/dL
same,TBIL,[3],0.3 mg/dL
same,TC,[3],85.4 mg/dL
same,TG,[3],152 mg/dL
same,TP,[3],6 g/dL
same,gamma-GTP,[3],1.2 IU/L
same,ALP,[4],633 IU/L
same,ALT,[4],31.4 IU/L
same,AST,[4],58 IU/L
same,BUN,[4],20.4 mg/dL
same,CRE,[4],0.6 mg/dL
same,DBIL,[4],0.026 mg/dL
same,GLC,[4],213.6 mg/dL
same,IP,[4],7.7 mg/dL
same,K,[4],4.3 meq/L
same,LDH,[4],110.2 IU/L
same,Na,[4],139.8 meq/L
same,PL,[4],150 mg/dL
same,RALB,[4],3.9 g/dL
same,TBIL,[4],0.3 mg/dL
same,TC,[4],69.2 mg/dL
same,TG,[4],142.4 mg/dL
same,TP,[4],6.1 g/dL
same,gamma-GTP,[4],0.6 IU/L
same,TERMINAL_BW,[5],236.5 g
same,APTT,[5],16.5 s
same,Bas,[5],0%
same,Eos,[5],1%
same,Hb,[5],13.6 g/dL
same,Ht,[5],41.2%
same,Lym,[5],79.6%
same,MCH,[5],21.6 pg
same,MCHC,[5],33.1%
same,MCV,[5],65.3 fL
same,Mono,[5],8.4%
same,Neu,[5],11.4%
same,PT,[5],11.2 s
same,Plat,[5],120 x10_4/uL
same,RBC,[5],632.2 x10_4/ul
same,Ret,[5],7.1%
same,WBC,[5],121.4 x10_2/uL
same,KIDNEY_L,[5],0.9 g
same,KIDNEY_R,[5],1 g
same,KIDNEY_TOTAL,[5],1.9 g
same,LIVER,[5],11.7 g
same,ALP,[5],857.2 IU/L
same,ALT,[5],40.4 IU/L
same,AST,[5],67 IU/L
same,BUN,[5],21.2 mg/dL
same,CRE,[5],0.5 mg/dL
same,Ca,[5],11.4 mg/dL
same,DBIL,[5],0.01 mg/dL
same,GLC,[5],193.6 mg/dL
same,IP,[5],8.4 mg/dL
same,K,[5],5 meq/L
same,LDH,[5],116.8 IU/L
same,Na,[5],138.4 meq/L
same,PL,[5],150.6 mg/dL
same,RALB,[5],4.2 g/dL
same,TBIL,[5],0.3 mg/dL
same,TC,[5],81 mg/dL
same,TP,[5],6.1 g/dL
same,gamma-GTP,[5],1.4 IU/L
same,TERMINAL_BW,[6],261.5 g
same,TERMINAL_BW,[7],305.1 g
same,TERMINAL_BW,[8],346.2 g
same,APTT,[6],15.6 s
same,Bas,[6],0%
same,Eos,[6],0.6%
same,Hb,[6],13.8 g/dL
same,Ht,[6],41.4%
same,Lym,[6],84%
same,MCH,[6],20.7 pg
same,MCHC,[6],33.2%
same,MCV,[6],62.4 fL
same,Mono,[6],4.8%
same,Plat,[6],134.3 x10_4/uL
same,RBC,[6],664.8 x10_4/ul
same,Ret,[6],4.9%
same,WBC,[6],139.3 x10_2/uL
same,APTT,[7],16.9 s
same,Bas,[7],0%
same,Eos,[7],1.2%
same,Hb,[7],14.2 g/dL
same,Ht,[7],42.9%
same,Lym,[7],77%
same,MCH,[7],19.9 pg
same,MCHC,[7],33.2%
same,MCV,[7],60 fL
same,Mono,[7],7.6%
same,Neu,[7],14.4%
same,PT,[7],11.6 s
same,RBC,[7],717 x10_4/ul
same,Ret,[7],3.5%
same,WBC,[7],93.7 x10_2/uL
same,APTT,[8],15.9 s
same,Bas,[8],0%
same,Eos,[8],1.2%
same,Hb,[8],14.8 g/dL
same,Ht,[8],44.8%
same,Lym,[8],83.4%
same,MCH,[8],18.8 pg
same,MCHC,[8],33.1%
same,MCV,[8],56.6 fL
same,Mono,[8],5.4%
same,PT,[8],11.7 s
same,RBC,[8],790.8 x10_4/ul
same,Ret,[8],2.4%
same,WBC,[8],131.2 x10_2/uL
same,KIDNEY_L,[6],1.1 g
same,KIDNEY_R,[6],1.2 g
same,KIDNEY_TOTAL,[6],2.3 g
same,KIDNEY_L,[7],1.2 g
same,KIDNEY_R,[7],1.3 g
same,KIDNEY_TOTAL,[7],2.5 g
same,KIDNEY_L,[8],1.4 g
same,KIDNEY_R,[8],1.4 g
same,KIDNEY_TOTAL,[8],2.8 g
same,LIVER,[6],12.3 g
same,LIVER,[7],13.8 g
same,LIVER,[8],13.8 g
same,ALT,[6],40.8 IU/L
same,AST,[6],67.6 IU/L
same,BUN,[6],20 mg/dL
same,CRE,[6],0.5 mg/dL
same,DBIL,[6],0.002 mg/dL
same,GLC,[6],203.8 mg/dL
same,IP,[6],8.2 mg/dL
same,K,[6],5.1 meq/L
same,LDH,[6],77 IU/L
same,Na,[6],139.2 meq/L
same,PL,[6],144.2 mg/dL
same,RALB,[6],4 g/dL
same,TBIL,[6],0.3 mg/dL
same,TC,[6],74.6 mg/dL
same,TG,[6],83.6 mg/dL
same,TP,[6],6 g/dL
same,gamma-GTP,[6],1.8 IU/L
same,ALP,[7],862.6 IU/L
same,ALT,[7],32.8 IU/L
same,AST,[7],61.2 IU/L
same,BUN,[7],22.2 mg/dL
same,CRE,[7],0.5 mg/dL
same,DBIL,[7],0 mg/dL
same,GLC,[7],197.6 mg/dL
same,IP,[7],7.8 mg/dL
same,K,[7],4.8 meq/L
same,LDH,[7],85 IU/L
same,Na,[7],138.2 meq/L
same,PL,[7],151.6 mg/dL
same,RALB,[7],4.1 g/dL
same,TBIL,[7],0.3 mg/dL
same,TC,[7],72.6 mg/dL
same,TP,[7],6.1 g/dL
same,gamma-GTP,[7],0.8 IU/L
same,ALP,[8],701.4 IU/L
same,ALT,[8],36.6 IU/L
same,AST,[8],65.8 IU/L
same,BUN,[8],22.6 mg/dL
same,CRE,[8],0.5 mg/dL
same,DBIL,[8],0.02 mg/dL
same,GLC,[8],194 mg/dL
same,IP,[8],7.5 mg/dL
same,K,[8],4.9 meq/L
same,LDH,[8],116.8 IU/L
same,Na,[8],137.2 meq/L
same,PL,[8],148.4 mg/dL
same,RALB,[8],4.1 g/dL
same,TBIL,[8],0.3 mg/dL
same,TC,[8],72.8 mg/dL
same,TG,[8],114.6 mg/dL
same,TP,[8],6.2 g/dL
same,gamma-GTP,[8],0.8 IU/L
same,TERMINAL_BW,[9],239.8 g
same,APTT,[9],16.2 s
same,Bas,[9],0%
